Paper PMC7290078, “Agonist bias and agonist‐dependent antagonism at corticotrophin releasing factor receptors” (Pharmacology Research & Perspectives, 2020)
No end group written: not given here.

Experiments:
CRF2 receptor (hCRF2α) = molecular target: T1, CRF2 receptor (hCRF2α) (Homo sapiens, UniProt Q13324); assay: cAMP accumulation (LANCE) in Cos7 cells transfected with hCRF2α, agonist stimulation; format: cell-based
T1 construct: host or cells: Cos7 cells, transient transfection (PEI), pcDNA3.0/3.1 vector
T1 sequence (Q13324 1-411): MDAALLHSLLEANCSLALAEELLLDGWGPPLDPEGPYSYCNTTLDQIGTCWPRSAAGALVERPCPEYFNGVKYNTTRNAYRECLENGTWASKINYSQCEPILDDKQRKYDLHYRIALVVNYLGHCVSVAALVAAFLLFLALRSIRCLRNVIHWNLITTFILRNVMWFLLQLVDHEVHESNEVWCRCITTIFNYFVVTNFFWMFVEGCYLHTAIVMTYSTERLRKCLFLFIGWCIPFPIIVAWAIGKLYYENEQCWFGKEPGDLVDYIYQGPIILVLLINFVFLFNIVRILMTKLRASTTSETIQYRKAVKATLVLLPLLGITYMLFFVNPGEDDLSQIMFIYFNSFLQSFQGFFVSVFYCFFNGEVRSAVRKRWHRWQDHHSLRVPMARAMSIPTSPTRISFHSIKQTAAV
From the text: (§1) Plasmids containing hCRF1α and hCRF2α (GenBank accession numbers AY457172 and AY449734) were obtained from the cDNA Resource Centre (Bloomsburg University) and are referred to as CRF1 and CRF2 in this manuscript. Hemagglutinin (HA) epitope‐tagged human Calcitonin (CT) receptor (CT(a) splice variant) and myc‐tagged human RAMP1 were used as described previously. ^27 HA‐tagged human calcitonin receptor‐like receptor (CLR), N‐terminal FLAG‐tagged human RAMP3 and N‐terminal myc‐tagged human RAMP3 were a gift from Professor David Poyner (Aston University) and Professor Patrick Sexton (Monash University), respectively. N‐terminal FLAG‐tagged human RAMP2 was used as described previously. ^28 All receptors and RAMPs were cloned in pcDNA3.0 or pcDNA3.1 plasmid vectors. All plasmid inserts were sequenced at the Centre for Genomics, Proteomics and Metabolomics (University of Auckland) and the sequences were verified prior to use.
Cos7, HEK‐293S, and HEK‐293T cells were cultured as described previously. ^28 , ^29 Cos7 cells were originally supplied by the ATCC to Associate Professor Nigel Birch (University of Auckland). HEK‐293S cells were a gift from Professor David Poyner (Aston University) and HEK‐293T cells a gift from Professor John Taylor (University of Auckland). Briefly, all cell lines were cultured in Dulbecco's Modified Eagle Medium (DMEM) supplemented with 8% heat inactivated fetal bovine serum (FBS) and maintained in a humidified incubator at 37°C with 5% CO2. For transfection, cells were counted (Countess CounterTM; Life Technologies) and plated at a density of 20 000 cells per well in 96‐well plates. The cells were transiently transfected 48 hours prior to assaying using polyethylenimine (PEI), as described previously. ^28 , ^29 In all experiments a total of 0.25 μg DNA was transfected per well. In the majority of experiments 0.25 μg DNA of receptor‐containing plasmid or the pcDNA3.1 plasmid without an insert was used. For experiments involving RAMPs, 0.125 μg of receptor DNA and 0.125 μg of RAMP‐containing plasmid DNA were transfected to give a 1:1 ratio of receptor to RAMP. Where the RAMP or receptor were transfected alone, the ratio of DNA was made up with the pcDNA3.1 plasmid.
cAMP accumulation in Cos7 cells transfected with hCRF1α or hCRF2α receptors was measured using the LANCE cAMP detection assay kit (PerkinElmer Life and Analytical Sciences) as described previously. ^30 Briefly, culture media was removed and replaced with DMEM containing 0.1% bovine albumin serum (BSA) and 1 mmol/L 3‐isobutyl‐1‐methylxanthine (IBMX) for 30 minutes at 37°C. Cells were incubated for an additional 15 minutes at 37°C with media or agonist concentrations of 1 pmol/L to 1 µmol/L for agonist only assays or 10 pmol/L to 10 µmol/L concentrations for antagonist experiments. Antagonists were added simultaneously or immediately prior to the addition of agonists. To stop cell stimulation and extract cAMP, the contents of the wells were replaced with 50 µL absolute ethanol. Samples were left at −20°C for a minimum of 10 minutes. The ethanol was evaporated and replaced with 50 µL of cAMP detection buffer. Samples were shaken for 15 minutes before 5 µL cell lysate was transferred to a white 384‐well optiplate and processed for cAMP quantification as described previously. ^31 Samples were read using an Envision plate reader (PerkinElmer). cAMP concentrations were determined from a standard curve generated in duplicate.
In all experiments the position of peptides and antagonists (pharmacology) or transfected receptors (ELISAs) on assay plates was randomized during each independent experiment, which are independent biological replicates. In all cases, duplicate, triplicate, or quadruplicate technical replicates were conducted for each independent experiment.

CRF1 receptor (hCRF1α) = molecular target: T2, CRF1 receptor (hCRF1α) (Homo sapiens, UniProt P34998); assay: IP1 accumulation (IP-one Gq) in Cos7 cells transfected with hCRF1α, agonist stimulation; format: cell-based
T2 construct: host or cells: Cos7 cells, transient transfection (PEI), pcDNA3.0/3.1 vector
T2 sequence (P34998 24-415): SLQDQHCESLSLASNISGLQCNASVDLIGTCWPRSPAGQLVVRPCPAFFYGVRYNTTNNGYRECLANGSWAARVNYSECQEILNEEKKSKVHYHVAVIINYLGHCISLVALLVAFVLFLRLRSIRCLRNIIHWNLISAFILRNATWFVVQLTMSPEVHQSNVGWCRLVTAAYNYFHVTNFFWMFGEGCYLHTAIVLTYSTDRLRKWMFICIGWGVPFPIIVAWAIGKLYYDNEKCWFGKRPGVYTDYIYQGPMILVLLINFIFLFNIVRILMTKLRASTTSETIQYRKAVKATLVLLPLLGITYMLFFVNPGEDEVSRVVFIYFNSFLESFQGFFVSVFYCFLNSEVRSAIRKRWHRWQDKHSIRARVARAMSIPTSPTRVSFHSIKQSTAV
From the text: as §1, with “N‐terminal FLAG‐tagged human RAMP2 was used as described previously. ^28 All receptors and RAMPs were cloned in pcDNA3.0 or pcDNA3.1 plasmid vectors. All plasmid inserts were sequenced at the Centre for Genomics, Proteomics and Metabolomics (University of Auckland) and the sequences were verified prior to use.” left out
Cos7, HEK‐293S, and HEK‐293T cells were cultured as described previously. ^28 , ^29 Cos7 cells were originally supplied by the ATCC to Associate Professor Nigel Birch (University of Auckland). […] For transfection, cells were counted (Countess CounterTM; Life Technologies) and plated at a density of 20 000 cells per well in 96‐well plates. […]
The IP‐one Gq assay kit (Cisbio) was used to quantify accumulated myo‐inositol‐1‐phosphate (IP1), a by‐product of IP3 produced after receptor‐mediated Gαq activation in Cos7 and HEK‐293S cells. […] Fifteen microliters of sample was then transferred to a 384‐well optiplate and read by an Envision plate reader (PerkinElmer). IP1 concentrations were calculated from a standard curve generated in duplicate. […]

EC50 (CRF2 receptor (hCRF2α); cAMP, hCRF2α, Cos7, 15 min at 37°C, 1 mmol/L IBMX, 1 pmol/L to 1 µmol/L agonist, mean ± SEM, n = 5) [nM] | EC50 (CRF1 receptor (hCRF1α); IP1, hCRF1α, Cos7, 90 min at 37°C, 50 mmol/L LiCl, 1 pmol/L to 10 µmol/L agonist, mean ± SEM, n = 5) [nM] | concentration‐dependent increase in cAMP (CRF2 receptor (hCRF2α); CRF2 receptor) | ΔΔlog(τ/K A) (signaling bias) (CRF2 receptor (hCRF2α); cAMP (reference pathway), hCRF2α, reference agonist UCN1, mean ± SEM, n = 5) | Hill slope (CRF2 receptor (hCRF2α); cAMP, CRF2 receptor) | Δlog(τ/K A) (relative efficacy) (CRF2 receptor (hCRF2α); cAMP, hCRF2α, reference agonist UCN1, mean ± SEM, n = 5) | Substance | concentration‐dependent increase in IP1 accumulation (CRF1 receptor (hCRF1α); CRF1 receptor)
0.0955 | 7.76 |  |  |  |  | DNPSLSIDLTFHLLRTLLELARTQSQRERAEQNRIIFDSV-NH2 [UCN1] | 
 |  | concentration‐dependent increases | 0.00 ± 0.27 | not significantly different from one | −0.55 ± 0.19 | IVLSLDVPIGLLQILLEQARARAAREQATTNARILARVGHC-NH2 (C-terminus assumed) [UCN2] | not UCN2 and UCN3 exhibited a concentration‐dependent increase
